This passage reports IC50, Activity and inhibition results from ChEMBL document CHEMBL1667848, “Synthesis and evaluation of trehalose-based compounds as anti-invasive agents” (Bioorg Med Chem Lett, 2011).

≈ marks a conversion by molar mass, not a printed value. Bounds are passed on as bounds.

Series [1] is described as follows: Antiinvasive activity against mouse 26-L5 cells by transwell migration assay. It counts as functional, cell-based.
The nature of series [2]: Cytotoxicity against mouse 26-L5 cells upto 10 ug/ml. It counts as cell-based.
Series [3] can be described thus: Antiinvasive activity against mouse 26-L5 cells at 1 ug/ml by transwell migration assay. It counts as functional.

A word on the IC50: it is the concentration needed to halve the response being measured. On to `COc1ccccc1C(=O)OC[C@H]1O[C@H](O[C@H]2O[C@H](COC(=O)c3ccccc3OC)[C@@H](O)[C@H](O)[C@H]2O)[C@H](O)[C@@H](O)[C@@H]1O`, for which, in series [1] (Mus musculus, read-out: IC50), the IC50 was found to be 1 µg/mL (≈ 1.64 µM). The Activity result in series [2] is on record as “Non-toxic”.
With `Cc1ccccc1C(=O)OC[C@H]1O[C@H](O[C@H]2O[C@H](COC(=O)c3ccccc3C)[C@@H](O)[C@H](O)[C@H]2O)[C@H](O)[C@@H](O)[C@@H]1O`, in series [1], the IC50 result is reported as “Not Active”. Also, the Activity entry in series [2] was “Non-toxic”.
For `COc1ccc(C(=O)OC[C@H]2O[C@H](O[C@H]3O[C@H](COC(=O)c4ccc(OC)cc4)[C@@H](O)[C@H](O)[C@H]3O)[C@H](O)[C@@H](O)[C@@H]2O)cc1`, in that order: “Not Active” and “Non-toxic”.
For the compound `O=C(OC[C@H]1O[C@H](O[C@H]2O[C@H](COC(=O)c3ccc(O)cc3)[C@@H](O)[C@H](O)[C@H]2O)[C@H](O)[C@@H](O)[C@@H]1O)c1ccc(O)cc1`, the IC50 in series [1] (Mus musculus, read-out: IC50) was determined as 1 µg/mL (≈ 1.72 µM). Also, the Activity entry in series [2] is on record as “Non-toxic”.
For the compound `COc1cccc(C(=O)OC[C@H]2O[C@H](O[C@H]3O[C@H](COC(=O)c4cccc(OC)c4OC)[C@@H](O)[C@H](O)[C@H]3O)[C@H](O)[C@@H](O)[C@@H]2O)c1OC`, the IC50 in series [1] (Mus musculus, read-out: IC50) was 0.1 µg/mL (≈ 0.149 µM). Further, in series [2], the Activity result is “Non-toxic”.
Regarding `COc1cc(C(=O)OC[C@H]2O[C@H](O[C@H]3O[C@H](COC(=O)c4cc(OC)c(OC)c(OC)c4)[C@@H](O)[C@H](O)[C@H]3O)[C@H](O)[C@@H](O)[C@@H]2O)cc(OC)c1OC`, in series [1], the IC50 result was “Not Active”. Also, the Activity result in series [2] is on record as “Non-toxic”.
As for `COc1cc(C(=O)OC[C@H]2O[C@H](O[C@H]3O[C@H](COC(=O)c4ccc(F)c(OC)c4)[C@@H](O)[C@H](O)[C@H]3O)[C@H](O)[C@@H](O)[C@@H]2O)ccc1F`, the IC50 entry in series [1] is on record as “Not Active”. For the same compound, the Activity entry in series [2] is “Non-toxic”.
As for `O=C(OC[C@H]1O[C@H](O[C@H]2O[C@H](COC(=O)c3c(F)cccc3F)[C@@H](O)[C@H](O)[C@H]2O)[C@H](O)[C@@H](O)[C@@H]1O)c1c(F)cccc1F`, in series [1] (Mus musculus, read-out: IC50), the IC50 was 1 µg/mL (≈ 1.61 µM). Besides, in series [2], the Activity result is recorded as “Non-toxic”.
On the same counts, the results for `CCNc1cccc(C)c1C(=O)OC[C@H]1O[C@H](O[C@H]2O[C@H](COC(=O)c3c(C)cccc3NCC)[C@@H](O)[C@H](O)[C@H]2O)[C@H](O)[C@@H](O)[C@@H]1O` are 1 µg/mL (≈ 1.5 µM) and “Non-toxic”.
The term inhibition denotes the relative decrease from the control value, in per cent. A low value points to a weak effect. `O=C(OC[C@H]1O[C@H](O[C@H]2O[C@H](COC(=O)c3cccc(O)c3O)[C@@H](O)[C@H](O)[C@H]2O)[C@H](O)[C@@H](O)[C@@H]1O)c1cccc(O)c1O`: the IC50 in series [1] (Mus musculus, read-out: IC50) is less than 1 µg/mL. In addition, the inhibition at 1 µg/mL in series [3] turned out to be 40%. In addition, the Activity entry in series [2] was “Non-toxic”.
For `O=C(OC[C@H]1O[C@H](O[C@H]2O[C@H](COC(=O)c3ccccc3O)[C@@H](O)[C@H](O)[C@H]2O)[C@H](O)[C@@H](O)[C@@H]1O)c1ccccc1O`, in that order: less than 1 µg/mL, 35% and “Non-toxic”.
With `Cc1cc(O)cc(O)c1C(=O)OC[C@H]1O[C@H](O[C@H]2O[C@H](COC(=O)c3c(C)cc(O)cc3O)[C@@H](O)[C@H](O)[C@H]2O)[C@H](O)[C@@H](O)[C@@H]1O` [BRARTEMICIN], in series [1] (Mus musculus, read-out: IC50), the IC50 stood at 0.25 µg/mL (≈ 0.389 µM). The Activity entry in series [2] is on record as “Non-toxic”.
